In patent US5294701A, “Anthracycline compounds and intermediates” (Pharmachemie B.V., priority 1990, dated 1994) one finds IC50 data, which are given here for 13 molecules.

In brackets after ≈: the same amount, converted by molar mass. Counter-ions that a name gives are not always drawn. Like-named read-outs stand apart in the source and are kept apart here.

Type in all cases: cell-based
For experiment [1], the system named is T 24 bladder carcinoma cells (T-cells). As to the kind of experiment: Inhibition of growth of human tumour cell line T 24 in vitro (PIT method of van Lambalgen and Lelieveld). On the procedure: (§1) A number of compounds were examined with the following human tumour cell lines according to the method of R. van Lambalgen and P. Lelieveld, "The PIT method: and automated in vitro technique for drug toxicity testing", Invest. New Drugs 5, 161-165, 1987.
T 24 bladder carcinoma cells (T-cells)
(§2) The cell lines where maintained in a continuous logarithmic culture in Dulbeco's medium supplemented with 10% fetal calf serum, penicillin (100 IU/ml) and streptomycin (100 μg/ml).
(§3) The ID50 values of the above compounds, expressed in ng/ml, where determined according to the abovementioned method of van Lambalgen and Lelieveld. The ID50 value is the amount which inhibits 50% of the cell growth.

Experiment [2] deals with A 204 rhabdomyosarcoma (A-cells). As to the kind of experiment: Inhibition of growth of human tumour cell line A 204 in vitro (PIT method of van Lambalgen and Lelieveld). On the procedure:
as §1
A 204 rhabdomyosarcoma (A-cells)
as §2, §3

Experiment [3] deals with IgR-37 melanoma cells (Z-cells). The experiment in a line: Inhibition of growth of human tumour cell line IgR-37 in vitro (PIT method of van Lambalgen and Lelieveld). On the procedure: as §1
IgR-37 melanoma cells (Z-cells)
as §2, §3

The subject of experiment [4] is MCF-7 mammary carcinoma cells (M-cells). As to the kind of experiment: Inhibition of growth of human tumour cell line MCF-7 in vitro (PIT method of van Lambalgen and Lelieveld). On the procedure: as §1
MCF-7 mammary carcinoma cells (M-cells)
as §2, §3

Experiment [5] concerns WiDr colon tumour cells (W-cells). The experiment in a line: Inhibition of growth of human tumour cell line WiDr in vitro (PIT method of van Lambalgen and Lelieveld). Conditions: read-out: ID50 values in ng/ml, WiDr (amount which inhibits 50% of the cell growth). The method, then: as §1
WiDr colon tumour cells (W-cells)
as §2, §3

[6] abbreviates: T24, read-out: ID50 values in ng/ml, T24 (amount which inhibits 50% of the cell growth).
[7] abbreviates: A204, read-out: ID50 values in ng/ml, A204 (amount which inhibits 50% of the cell growth).
Setting [8] is: IGR-37, read-out: ID50 values in ng/ml, IgR-37 (amount which inhibits 50% of the cell growth).
[9] abbreviates: MCF7, read-out: ID50 values in ng/ml, MCF-7 (amount which inhibits 50% of the cell growth).
Where [10] appears, read: T24, T 24 bladder carcinoma cells, read-out: ID50 values in ng/ml, T24 (amount which inhibits 50% of the cell growth).
Setting [11] is: A204, A 204 rhabdomyosarcoma cells, read-out: ID50 values in ng/ml, A204 (amount which inhibits 50% of the cell growth).
Where [12] appears, read: IgR-37 melanoma cells, read-out: ID50 values in ng/ml, IgR-37 (amount which inhibits 50% of the cell growth).
[13] abbreviates: MCF7, MCF-7 mammary carcinoma cells, read-out: ID50 values in ng/ml, MCF-7 (amount which inhibits 50% of the cell growth).

With `COc1cccc2c1C(=O)c1c(O)c3c(c(O)c1C2=O)C[C@@](O)(C(=O)CO)C[C@@H]3O[C@H]1C[C@H](N)[C@H](O)[C@H](C)O1` [Adramycin.HCl, Adriamycin, reference compound], the IC50 came out at 18 ng/mL in experiment [1] (setting [6]); 4 ng/mL in experiment [2] (setting [7]); 6 ng/mL in experiment [3] (setting [8]); 6 ng/mL in experiment [4] (setting [9]); 16 ng/mL in experiment [5] (WiDr).

In the case of `COc1cccc2c1C(=O)c1c(O)c3c(c(O)c1C2=O)C[C@@](O)(C(C)=O)C[C@@H]3O[C@H]1C[C@H](N)[C@H](O)[C@H](C)O1` [Daunomycin.HCl, Daunomycin, reference compound], the IC50 in experiment [1] (setting [6]) amounted to 4 ng/mL; in experiment [2] (setting [7]), 1 ng/mL; in experiment [3] (setting [8]) it was 1 ng/mL; in experiment [4] (setting [9]) it was 1 ng/mL; in experiment [5] (WiDr), 3 ng/mL.

As to `COc1cc([C@@H]2c3cc4c(cc3[C@@H](O[C@@H]3O[C@@H]5CO[C@@H](C)O[C@H]5[C@H](O)[C@H]3O)[C@H]3COC(=O)[C@H]23)OCO4)cc(OC)c1O` [Etoposide, reference compound], the IC50 in experiment [1] (setting [6]) was found to be 457 ng/mL (≈ 0.776 µM); in experiment [2] (setting [7]) it was 91 ng/mL (≈ 0.155 µM); in experiment [3] (setting [8]), 427 ng/mL (≈ 0.725 µM); in experiment [4] (setting [9]), 187 ng/mL (≈ 0.318 µM); in experiment [5] (WiDr), 624 ng/mL (≈ 1.06 µM).

Take `C#C[C@]1(O)Cc2c(O)c3c(c(O)c2[C@@H](O[C@H]2C[C@H](N)[C@H](O)[C@H](C)O2)C1)C(=O)c1ccccc1C3=O` [HRM01]: the IC50 was found to be 2 ng/mL (≈ 0.00417 µM) in experiment [1] (setting [10]); 0.3 ng/mL (≈ 0.000626 µM) in experiment [2] (setting [11]); 2 ng/mL (≈ 0.00417 µM) in experiment [3] (setting [12]); 1 ng/mL (≈ 0.00209 µM) in experiment [4] (setting [13]); 4 ng/mL (≈ 0.00834 µM) in experiment [5] (WiDr colon tumour cells).

Take `C[C@@H]1O[C@@H](O[C@H]2C[C@](O)(C#C[Si](C)(C)C)Cc3c(O)c4c(c(O)c32)C(=O)c2ccccc2C4=O)C[C@H](NC(=O)C(F)(F)F)[C@@H]1O` [HRM03]: the IC50 in experiment [1] (setting [6]) is 444 ng/mL (≈ 0.686 µM); in experiment [2] (setting [7]), 97 ng/mL (≈ 0.15 µM); in experiment [3] (setting [8]), 146 ng/mL (≈ 0.225 µM); in experiment [4] (setting [9]), 151 ng/mL (≈ 0.233 µM); in experiment [5] (WiDr), 156 ng/mL (≈ 0.241 µM).

Consider `C#C[C@]1(O)Cc2c(O)c3c(c(O)c2[C@@H](O[C@H]2C[C@H](NC(=O)C(F)(F)F)[C@H](O)[C@H](C)O2)C1)C(=O)c1ccccc1C3=O` [HRM04], for which the IC50 in experiment [1] (setting [10]) was determined as 75 ng/mL (≈ 0.13 µM); in experiment [2] (setting [11]), 14 ng/mL (≈ 0.0243 µM); in experiment [3] (setting [12]), 18 ng/mL (≈ 0.0313 µM); in experiment [4] (setting [13]), 14 ng/mL (≈ 0.0243 µM); in experiment [5] (WiDr colon tumour cells), 43 ng/mL (≈ 0.0747 µM).

Turning to `CC(=O)[C@@]1(O)Cc2c(O)c3c(c(O)c2[C@H](O[C@H]2C[C@H](N)[C@H](O)[C@H](C)O2)C1)C(=O)c1ccccc1C3=O` [HRM09, α-7.9-bis-epi-4-demethoxydaunomycin, reference compound], the IC50 in experiment [1] (setting [10]) was determined as 1140 ng/mL (≈ 2.3 µM); in experiment [2] (setting [11]) it was 302 ng/mL (≈ 0.607 µM); in experiment [3] (setting [12]), 618 ng/mL (≈ 1.24 µM); in experiment [4] (setting [13]) it was 745 ng/mL (≈ 1.5 µM); in experiment [5] (WiDr colon tumour cells), 501 ng/mL (≈ 1.01 µM).

Consider `C#C[C@@]1(O)Cc2c(O)c3c(c(O)c2[C@H](O[C@H]2C[C@H](N)[C@H](O)[C@H](C)O2)C1)C(=O)c1ccccc1C3=O` [HRM10], for which the IC50 was found to be 728 ng/mL (≈ 1.52 µM) in experiment [1] (setting [10]); 243 ng/mL (≈ 0.507 µM) in experiment [2] (setting [11]); 469 ng/mL (≈ 0.978 µM) in experiment [3] (setting [12]); 420 ng/mL (≈ 0.876 µM) in experiment [4] (setting [13]); 372 ng/mL (≈ 0.776 µM) in experiment [5] (WiDr colon tumour cells).

In the case of `CC(=O)C1(O)Cc2c(O)c3c(c(O)c2C(O[C@H]2C[C@H](N)[C@H](O)[C@H](C)O2)C1)C(=O)c1cc(C)cnc1C3=O` (some centres unmarked) [HRM11], the IC50 in experiment [1] (setting [10]) was 173 ng/mL (≈ 0.338 µM); in experiment [2] (setting [11]), 45 ng/mL (≈ 0.0878 µM); in experiment [3] (setting [12]), 77 ng/mL (≈ 0.15 µM); in experiment [4] (setting [13]) it was 67 ng/mL (≈ 0.131 µM); in experiment [5] (WiDr colon tumour cells), 139 ng/mL (≈ 0.271 µM).

With `C#C[C@]1(O)Cc2c(O)c3c(c(O)c2[C@@H](O[C@H]2C[C@H](N)[C@H](O)[C@H](C)O2)C1)C(=O)c1c(OC)cccc1C3=O` [HRM12], the IC50 in experiment [1] (setting [10]) came out at 140 ng/mL (≈ 0.275 µM); in experiment [2] (setting [11]), 21 ng/mL (≈ 0.0412 µM); in experiment [3] (setting [12]) it was 63 ng/mL (≈ 0.124 µM); in experiment [4] (setting [13]) it was 39 ng/mL (≈ 0.0765 µM); in experiment [5] (WiDr colon tumour cells), 87 ng/mL (≈ 0.171 µM).

In the case of `CC(=O)[C@]1(O)CC2=C(C(=O)c3c(O)ccc(O)c3C2=O)[C@@H](O[C@H]2C[C@H](N)[C@H](O)[C@H](C)O2)C1` [HRM13], the IC50 stood at 1050 ng/mL (≈ 2.34 µM) in experiment [1] (setting [10]); 729 ng/mL (≈ 1.63 µM) in experiment [2] (setting [11]); 2440 ng/mL (≈ 5.46 µM) in experiment [3] (setting [12]); 542 ng/mL (≈ 1.21 µM) in experiment [4] (setting [13]); 1420 ng/mL (≈ 3.18 µM) in experiment [5] (WiDr colon tumour cells).

Consider `CC(=O)C1(O)Cc2c(O)c3c(c(O)c2C(O[C@H]2C[C@H](N)[C@H](O)[C@H](C)O2)C1)C(=O)c1ncc(C)cc1C3=O` (some centres unmarked) [HRM15], for which the IC50 in experiment [1] (setting [10]) turned out to be 949 ng/mL (≈ 1.85 µM); in experiment [2] (setting [11]), 171 ng/mL (≈ 0.334 µM); in experiment [3] (setting [12]), 459 ng/mL (≈ 0.896 µM); in experiment [4] (setting [13]), 334 ng/mL (≈ 0.652 µM); in experiment [5] (WiDr colon tumour cells), 779 ng/mL (≈ 1.52 µM).

Turning to `C#C[C@]1(O)CC2=C(C(=O)c3c(O)ccc(O)c3C2=O)[C@@H](O[C@H]2C[C@H](N)[C@H](O)[C@H](C)O2)C1` [HRM16], the IC50 in experiment [1] (setting [10]) was found to be 1260 ng/mL (≈ 2.94 µM); in experiment [2] (setting [11]), 280 ng/mL (≈ 0.652 µM); in experiment [3] (setting [12]) it was 1940 ng/mL (≈ 4.51 µM); in experiment [4] (setting [13]), 338 ng/mL (≈ 0.787 µM); in experiment [5] (WiDr colon tumour cells), 2120 ng/mL (≈ 4.93 µM).
